# Measurements reported in publication PMC12670405, “Second-Generation AURKA-Targeting PROTACs: Structural Optimization toward in Vivo Degradation in Neuroblastoma” (Journal of Medicinal Chemistry, 2025).
# Key:
# Assay in all cases: KINOMEscan scanMAX
# Assay type in all cases: binding
# Details in all cases: read-out: Percent Control
# CSNK1D = target: T1, CSNK1D (Homo sapiens, UniProt P48730)
# T1 construct: purchased Eurofins Discovery (DiscoverX KINOMEscan scanMAX)
# Procedure: (§1) The kinome-wide binding assay was performed by Eurofins Discovery using the scanMAX screening platform. More information can be found on the Eurofins Discovery Web site.
# EGFR(L858R,T790M) = target: T2, EGFR(L858R,T790M) (Homo sapiens, UniProt P00533, L858R/T790M)
# T2 construct: purchased Eurofins Discovery (DiscoverX KINOMEscan scanMAX)
# Procedure: as §1
# GCN2(Kin.Dom.2,S808G) = target: T3, GCN2(Kin.Dom.2,S808G) (Homo sapiens, UniProt Q9P2K8, S808G)
# T3 construct: GCN2(Kin.Dom.2,S808G); purchased Eurofins Discovery (DiscoverX KINOMEscan scanMAX)
# Procedure: as §1
# RET(V804M) = target: T4, RET(V804M) (Homo sapiens, UniProt P07949, V804M)
# T4 construct: purchased Eurofins Discovery (DiscoverX KINOMEscan scanMAX)
# Procedure: as §1
# EPHB6 = target: T5, EPHB6 (Homo sapiens, UniProt O15197)
# T5 construct: purchased Eurofins Discovery (DiscoverX KINOMEscan scanMAX)
# Procedure: as §1
# MAP4K2 = target: T6, MAP4K2 (Homo sapiens, UniProt Q12851)
# T6 construct: purchased Eurofins Discovery (DiscoverX KINOMEscan scanMAX)
# Procedure: as §1
# RIPK1 = target: T7, RIPK1 (Homo sapiens, UniProt Q13546)
# T7 construct: purchased Eurofins Discovery (DiscoverX KINOMEscan scanMAX)
# Procedure: as §1
# AKT1 = target: T8, AKT1 (Homo sapiens, UniProt P31749)
# T8 construct: purchased Eurofins Discovery (DiscoverX KINOMEscan scanMAX)
# T8 sequence (P31749 whole entry): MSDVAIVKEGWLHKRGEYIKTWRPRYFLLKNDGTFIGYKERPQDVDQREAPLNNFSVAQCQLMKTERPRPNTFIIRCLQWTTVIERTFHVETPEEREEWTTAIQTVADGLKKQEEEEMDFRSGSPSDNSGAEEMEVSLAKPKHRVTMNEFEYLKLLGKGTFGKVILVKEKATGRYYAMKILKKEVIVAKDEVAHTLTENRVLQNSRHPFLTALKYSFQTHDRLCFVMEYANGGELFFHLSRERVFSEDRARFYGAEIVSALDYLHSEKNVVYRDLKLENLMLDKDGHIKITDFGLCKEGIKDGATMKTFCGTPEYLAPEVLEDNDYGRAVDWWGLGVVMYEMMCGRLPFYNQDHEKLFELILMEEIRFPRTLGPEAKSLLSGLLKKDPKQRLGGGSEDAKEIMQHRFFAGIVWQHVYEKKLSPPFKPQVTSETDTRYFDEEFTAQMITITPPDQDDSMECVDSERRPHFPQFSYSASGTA
# Procedure: as §1
# PIP5K1C = target: T9, PIP5K1C (Homo sapiens, UniProt O60331)
# T9 construct: purchased Eurofins Discovery (DiscoverX KINOMEscan scanMAX)
# Procedure: as §1
# ITK = target: T10, ITK (Homo sapiens, UniProt Q08881)
# T10 construct: purchased Eurofins Discovery (DiscoverX KINOMEscan scanMAX)
# Procedure: as §1
# EGFR(G719C) = target: T11, EGFR(G719C) (Homo sapiens, UniProt P00533, G719C)
# T11 construct: purchased Eurofins Discovery (DiscoverX KINOMEscan scanMAX)
# Procedure: as §1
# WNK2 = target: T12, WNK2 (Homo sapiens, UniProt Q9Y3S1)
# T12 construct: purchased Eurofins Discovery (DiscoverX KINOMEscan scanMAX)
# Procedure: as §1
# SBK1 = target: T13, SBK1 (Homo sapiens, UniProt Q52WX2)
# T13 construct: purchased Eurofins Discovery (DiscoverX KINOMEscan scanMAX)
# T13 sequence (Q52WX2 whole entry): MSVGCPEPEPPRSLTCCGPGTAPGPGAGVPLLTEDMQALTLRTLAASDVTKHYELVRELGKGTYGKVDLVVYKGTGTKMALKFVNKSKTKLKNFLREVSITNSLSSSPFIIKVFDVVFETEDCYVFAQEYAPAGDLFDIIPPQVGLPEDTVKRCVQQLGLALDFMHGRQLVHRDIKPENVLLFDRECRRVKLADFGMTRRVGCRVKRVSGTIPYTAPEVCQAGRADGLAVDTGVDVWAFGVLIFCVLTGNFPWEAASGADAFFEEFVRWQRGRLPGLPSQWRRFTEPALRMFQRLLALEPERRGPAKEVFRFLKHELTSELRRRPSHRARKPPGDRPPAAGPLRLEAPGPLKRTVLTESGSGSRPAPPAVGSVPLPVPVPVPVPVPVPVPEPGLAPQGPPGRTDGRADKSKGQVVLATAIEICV
# Procedure: as §1
# p38-gamma = target: T14, p38-gamma (Homo sapiens, UniProt P53778)
# T14 construct: purchased Eurofins Discovery (DiscoverX KINOMEscan scanMAX)
# Procedure: as §1
# [1] = target: T15, JAK2(JH1domain-catalytic) (Homo sapiens, UniProt O60674)
# T15 construct: JAK2(JH1domain-catalytic); purchased Eurofins Discovery (DiscoverX KINOMEscan scanMAX)
# T15 sequence (O60674 840-1132 limits assumed): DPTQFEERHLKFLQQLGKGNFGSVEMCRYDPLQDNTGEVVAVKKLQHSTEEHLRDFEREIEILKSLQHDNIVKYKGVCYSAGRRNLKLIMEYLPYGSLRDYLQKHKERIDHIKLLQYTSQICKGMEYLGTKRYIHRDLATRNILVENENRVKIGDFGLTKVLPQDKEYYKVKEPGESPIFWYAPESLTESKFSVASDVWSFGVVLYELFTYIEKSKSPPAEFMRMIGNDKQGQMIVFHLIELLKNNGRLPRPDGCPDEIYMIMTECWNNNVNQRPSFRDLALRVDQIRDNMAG
# Procedure: as §1
# ERN1 = target: T16, ERN1 (Homo sapiens, UniProt O75460)
# T16 construct: purchased Eurofins Discovery (DiscoverX KINOMEscan scanMAX)
# Procedure: as §1
# IRAK4 = target: T17, IRAK4 (Homo sapiens, UniProt Q9NWZ3)
# T17 construct: purchased Eurofins Discovery (DiscoverX KINOMEscan scanMAX)
# Procedure: as §1
# PIKFYVE = target: T18, PIKFYVE (Homo sapiens, UniProt Q9Y2I7)
# T18 construct: purchased Eurofins Discovery (DiscoverX KINOMEscan scanMAX)
# Procedure: as §1
# MLK3 = target: T19, MLK3 (Homo sapiens, UniProt Q16584)
# T19 construct: purchased Eurofins Discovery (DiscoverX KINOMEscan scanMAX)
# Procedure: as §1
# TNIK = target: T20, TNIK (Homo sapiens, UniProt Q9UKE5)
# T20 construct: purchased Eurofins Discovery (DiscoverX KINOMEscan scanMAX)
# Procedure: as §1
# AKT2 = target: T21, AKT2 (Homo sapiens, UniProt P31751)
# T21 construct: purchased Eurofins Discovery (DiscoverX KINOMEscan scanMAX)
# Procedure: as §1
# EGFR(L861Q) = target: T22, EGFR(L861Q) (Homo sapiens, UniProt P00533, L861Q)
# T22 construct: purchased Eurofins Discovery (DiscoverX KINOMEscan scanMAX)
# T22 sequence (P00533 25-1210 L861Q): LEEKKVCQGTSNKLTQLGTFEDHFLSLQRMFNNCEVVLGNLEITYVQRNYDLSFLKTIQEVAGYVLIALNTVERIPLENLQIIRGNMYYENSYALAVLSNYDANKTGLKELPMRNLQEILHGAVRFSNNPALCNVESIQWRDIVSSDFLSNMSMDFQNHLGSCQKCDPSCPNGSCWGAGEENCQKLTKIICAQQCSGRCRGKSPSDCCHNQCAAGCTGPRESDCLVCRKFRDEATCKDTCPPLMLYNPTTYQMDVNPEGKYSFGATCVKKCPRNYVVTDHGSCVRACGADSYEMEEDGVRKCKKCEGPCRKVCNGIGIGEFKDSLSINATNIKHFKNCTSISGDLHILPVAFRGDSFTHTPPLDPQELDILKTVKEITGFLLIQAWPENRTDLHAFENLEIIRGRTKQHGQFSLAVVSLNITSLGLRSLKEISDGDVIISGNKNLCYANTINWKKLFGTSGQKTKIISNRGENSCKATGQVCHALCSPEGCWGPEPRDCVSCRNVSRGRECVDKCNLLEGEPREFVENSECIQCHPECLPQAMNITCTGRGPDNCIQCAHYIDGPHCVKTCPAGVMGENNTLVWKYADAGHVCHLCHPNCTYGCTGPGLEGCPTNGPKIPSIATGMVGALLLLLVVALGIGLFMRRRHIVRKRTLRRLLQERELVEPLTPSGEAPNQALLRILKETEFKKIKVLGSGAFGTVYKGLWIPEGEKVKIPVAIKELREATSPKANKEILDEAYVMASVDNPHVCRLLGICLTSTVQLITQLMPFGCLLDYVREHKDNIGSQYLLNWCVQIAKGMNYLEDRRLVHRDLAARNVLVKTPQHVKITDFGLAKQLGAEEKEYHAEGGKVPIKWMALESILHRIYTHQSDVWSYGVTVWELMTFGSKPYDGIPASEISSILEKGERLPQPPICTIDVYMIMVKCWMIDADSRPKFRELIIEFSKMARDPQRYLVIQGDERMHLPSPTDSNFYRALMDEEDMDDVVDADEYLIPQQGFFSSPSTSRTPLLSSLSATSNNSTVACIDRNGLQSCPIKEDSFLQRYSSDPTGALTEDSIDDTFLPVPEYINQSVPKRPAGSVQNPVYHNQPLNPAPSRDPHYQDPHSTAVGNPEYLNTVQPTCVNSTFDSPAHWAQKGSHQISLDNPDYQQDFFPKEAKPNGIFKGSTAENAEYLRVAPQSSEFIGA
# Procedure: as §1
# CDC2L2 = target: T23, CDC2L2 (Homo sapiens, UniProt Q9UQ88)
# T23 construct: purchased Eurofins Discovery (DiscoverX KINOMEscan scanMAX)
# Procedure: as §1
# PRP4 = target: T24, PRP4 (Homo sapiens, UniProt Q13523)
# T24 construct: purchased Eurofins Discovery (DiscoverX KINOMEscan scanMAX)
# T24 sequence (Q13523 whole entry): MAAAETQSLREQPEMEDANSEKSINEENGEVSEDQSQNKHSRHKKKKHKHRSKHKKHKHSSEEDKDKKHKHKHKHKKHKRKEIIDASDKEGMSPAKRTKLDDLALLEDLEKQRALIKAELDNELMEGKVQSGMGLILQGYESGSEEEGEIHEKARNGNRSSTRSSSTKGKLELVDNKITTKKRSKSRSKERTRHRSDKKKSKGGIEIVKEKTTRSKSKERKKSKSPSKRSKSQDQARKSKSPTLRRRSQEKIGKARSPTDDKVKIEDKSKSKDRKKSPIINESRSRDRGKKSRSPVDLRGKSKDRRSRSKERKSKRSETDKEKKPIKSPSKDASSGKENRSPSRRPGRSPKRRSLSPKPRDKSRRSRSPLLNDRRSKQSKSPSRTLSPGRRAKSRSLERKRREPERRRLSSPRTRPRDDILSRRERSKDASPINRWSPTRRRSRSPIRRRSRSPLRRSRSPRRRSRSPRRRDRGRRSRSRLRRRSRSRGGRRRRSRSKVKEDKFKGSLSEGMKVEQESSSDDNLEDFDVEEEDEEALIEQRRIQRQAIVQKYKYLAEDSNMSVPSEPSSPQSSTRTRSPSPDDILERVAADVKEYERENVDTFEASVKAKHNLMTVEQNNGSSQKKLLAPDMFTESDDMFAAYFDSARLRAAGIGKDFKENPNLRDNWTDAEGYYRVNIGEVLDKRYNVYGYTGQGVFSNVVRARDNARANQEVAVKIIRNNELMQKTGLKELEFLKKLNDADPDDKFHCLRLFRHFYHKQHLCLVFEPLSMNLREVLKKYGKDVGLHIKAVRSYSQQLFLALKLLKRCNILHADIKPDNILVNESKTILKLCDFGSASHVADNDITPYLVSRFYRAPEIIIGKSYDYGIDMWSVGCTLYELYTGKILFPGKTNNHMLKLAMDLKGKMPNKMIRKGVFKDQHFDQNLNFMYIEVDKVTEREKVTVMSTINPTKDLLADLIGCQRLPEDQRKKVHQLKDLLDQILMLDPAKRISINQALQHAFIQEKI
# Procedure: as §1
# TNK2 = target: T25, TNK2 (Homo sapiens, UniProt Q07912)
# T25 construct: purchased Eurofins Discovery (DiscoverX KINOMEscan scanMAX)
# Procedure: as §1
# PRKR = target: T26, PRKR (Homo sapiens, UniProt P19525)
# T26 construct: purchased Eurofins Discovery (DiscoverX KINOMEscan scanMAX)
# Procedure: as §1
# PIP5K1A = target: T27, PIP5K1A (Homo sapiens, UniProt Q99755)
# T27 construct: purchased Eurofins Discovery (DiscoverX KINOMEscan scanMAX)
# T27 sequence (Q99755 whole entry): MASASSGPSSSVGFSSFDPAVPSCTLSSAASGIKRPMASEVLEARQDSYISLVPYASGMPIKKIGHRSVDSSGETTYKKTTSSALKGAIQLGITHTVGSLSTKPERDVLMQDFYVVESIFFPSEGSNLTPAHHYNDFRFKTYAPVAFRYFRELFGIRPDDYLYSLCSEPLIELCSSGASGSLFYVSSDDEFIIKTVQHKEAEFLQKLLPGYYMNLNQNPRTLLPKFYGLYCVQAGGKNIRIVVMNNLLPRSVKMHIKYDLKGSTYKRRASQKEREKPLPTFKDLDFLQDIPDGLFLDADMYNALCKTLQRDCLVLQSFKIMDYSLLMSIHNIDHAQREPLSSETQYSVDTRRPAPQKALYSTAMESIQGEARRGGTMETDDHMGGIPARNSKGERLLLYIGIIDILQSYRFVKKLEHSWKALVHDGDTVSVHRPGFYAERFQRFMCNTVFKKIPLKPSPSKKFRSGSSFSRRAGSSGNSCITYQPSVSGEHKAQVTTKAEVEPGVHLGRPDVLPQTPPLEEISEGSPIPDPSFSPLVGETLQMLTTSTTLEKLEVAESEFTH
# Procedure: as §1
# TTK = target: T28, TTK (Homo sapiens, UniProt P33981)
# T28 construct: purchased Eurofins Discovery (DiscoverX KINOMEscan scanMAX)
# Procedure: as §1
# LKB1 = target: T29, LKB1 (Homo sapiens, UniProt Q15831)
# T29 construct: purchased Eurofins Discovery (DiscoverX KINOMEscan scanMAX)
# Procedure: as §1
# TIE1 = target: T30, TIE1 (Homo sapiens, UniProt P35590)
# T30 construct: purchased Eurofins Discovery (DiscoverX KINOMEscan scanMAX)
# T30 sequence (P35590 22-1138): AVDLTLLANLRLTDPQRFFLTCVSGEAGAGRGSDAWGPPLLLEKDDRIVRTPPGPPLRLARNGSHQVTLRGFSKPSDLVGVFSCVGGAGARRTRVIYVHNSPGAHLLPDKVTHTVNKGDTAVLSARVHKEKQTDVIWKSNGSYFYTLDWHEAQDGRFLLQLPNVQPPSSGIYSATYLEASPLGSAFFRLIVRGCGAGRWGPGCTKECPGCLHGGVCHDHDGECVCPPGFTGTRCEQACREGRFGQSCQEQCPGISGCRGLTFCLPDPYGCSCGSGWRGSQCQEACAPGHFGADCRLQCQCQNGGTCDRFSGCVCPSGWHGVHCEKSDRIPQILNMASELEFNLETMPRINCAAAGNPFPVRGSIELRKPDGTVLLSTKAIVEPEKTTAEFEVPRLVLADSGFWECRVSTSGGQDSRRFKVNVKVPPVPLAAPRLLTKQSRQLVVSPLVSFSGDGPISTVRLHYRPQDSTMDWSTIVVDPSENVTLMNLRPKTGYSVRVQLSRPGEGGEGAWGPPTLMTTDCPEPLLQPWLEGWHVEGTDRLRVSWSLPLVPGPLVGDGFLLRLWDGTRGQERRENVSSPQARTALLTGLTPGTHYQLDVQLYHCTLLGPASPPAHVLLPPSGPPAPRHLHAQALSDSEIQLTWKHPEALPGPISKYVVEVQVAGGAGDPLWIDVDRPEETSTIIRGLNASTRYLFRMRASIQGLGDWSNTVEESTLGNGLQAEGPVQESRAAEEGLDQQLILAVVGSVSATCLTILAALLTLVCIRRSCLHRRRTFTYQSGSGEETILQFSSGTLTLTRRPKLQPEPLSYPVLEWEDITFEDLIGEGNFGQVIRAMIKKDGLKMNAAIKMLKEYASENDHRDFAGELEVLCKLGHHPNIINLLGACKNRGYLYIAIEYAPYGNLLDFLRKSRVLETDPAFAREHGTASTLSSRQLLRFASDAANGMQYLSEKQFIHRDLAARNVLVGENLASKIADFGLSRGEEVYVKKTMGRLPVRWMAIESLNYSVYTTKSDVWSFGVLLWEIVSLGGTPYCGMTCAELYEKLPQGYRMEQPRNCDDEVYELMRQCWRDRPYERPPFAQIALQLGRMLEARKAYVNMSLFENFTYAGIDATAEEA
# Procedure: as §1
# EPHA8 = target: T31, EPHA8 (Homo sapiens, UniProt P29322)
# T31 construct: purchased Eurofins Discovery (DiscoverX KINOMEscan scanMAX)
# Procedure: as §1
# MKK7 = target: T32, MKK7 (Homo sapiens, UniProt O14733)
# T32 construct: purchased Eurofins Discovery (DiscoverX KINOMEscan scanMAX)
# Procedure: as §1
# STK39 = target: T33, STK39 (Homo sapiens, UniProt Q9UEW8)
# T33 construct: purchased Eurofins Discovery (DiscoverX KINOMEscan scanMAX)
# Procedure: as §1
smiles,measurement,setting,value
Cc1cc(Nc2ccc(F)c(CC3(C(=O)N4CCC(F)(CN5CCN(c6ccc(N7CCC(=O)NC7=O)cn6)CC5)CC4)CCN(Cc4cccc(Cl)c4F)CC3)n2)n[nH]1 [SK5527],remaining binding at 0.1 µM,CSNK1D; 100 nM,98%
same,remaining binding at 1 µM,CSNK1D; 1000 nM,91%
same,remaining binding at 0.1 µM,"EGFR(L858R,T790M); 100 nM",82%
same,remaining binding at 1 µM,"EGFR(L858R,T790M); 1000 nM",87%
same,remaining binding at 0.1 µM,"GCN2(Kin.Dom.2,S808G); 100 nM",98%
same,remaining binding at 1 µM,"GCN2(Kin.Dom.2,S808G); 1000 nM",100%
same,remaining binding at 0.1 µM,RET(V804M); 100 nM,85%
same,remaining binding at 1 µM,RET(V804M); 1000 nM,65%
same,remaining binding at 0.1 µM,EPHB6; 100 nM,93%
same,remaining binding at 1 µM,EPHB6; 1000 nM,85%
same,remaining binding at 0.1 µM,MAP4K2; 100 nM,88%
same,remaining binding at 1 µM,MAP4K2; 1000 nM,95%
same,remaining binding at 0.1 µM,RIPK1; 100 nM,100%
same,remaining binding at 1 µM,RIPK1; 1000 nM,86%
same,remaining binding at 0.1 µM,AKT1; 100 nM,78%
same,remaining binding at 1 µM,AKT1; 1000 nM,100%
same,remaining binding at 0.1 µM,PIP5K1C; 100 nM,100%
same,remaining binding at 1 µM,PIP5K1C; 1000 nM,94%
same,remaining binding at 0.1 µM,ITK; 100 nM,100%
same,remaining binding at 1 µM,ITK; 1000 nM,81%
same,remaining binding at 0.1 µM,EGFR(G719C); 100 nM,87%
same,remaining binding at 1 µM,EGFR(G719C); 1000 nM,94%
same,remaining binding at 0.1 µM,WNK2; 100 nM,100%
same,remaining binding at 1 µM,WNK2; 1000 nM,100%
same,remaining binding at 0.1 µM,SBK1; 100 nM,86%
same,remaining binding at 1 µM,SBK1; 1000 nM,64%
same,remaining binding at 0.1 µM,p38-gamma; 100 nM,97%
same,remaining binding at 1 µM,p38-gamma; 1000 nM,87%
same,remaining binding at 0.1 µM,[1]; 100 nM,91%
same,remaining binding at 1 µM,[1]; 1000 nM,65%
same,remaining binding at 0.1 µM,ERN1; 100 nM,100%
same,remaining binding at 1 µM,ERN1; 1000 nM,100%
same,remaining binding at 0.1 µM,IRAK4; 100 nM,87%
same,remaining binding at 1 µM,IRAK4; 1000 nM,70%
same,remaining binding at 0.1 µM,PIKFYVE; 100 nM,100%
same,remaining binding at 1 µM,PIKFYVE; 1000 nM,100%
same,remaining binding at 0.1 µM,MLK3; 100 nM,85%
same,remaining binding at 1 µM,MLK3; 1000 nM,100%
same,remaining binding at 0.1 µM,TNIK; 100 nM,96%
same,remaining binding at 1 µM,TNIK; 1000 nM,90%
same,remaining binding at 0.1 µM,AKT2; 100 nM,98%
same,remaining binding at 1 µM,AKT2; 1000 nM,98%
same,remaining binding at 0.1 µM,EGFR(L861Q); 100 nM,95%
same,remaining binding at 1 µM,EGFR(L861Q); 1000 nM,100%
same,remaining binding at 0.1 µM,CDC2L2; 100 nM,99%
same,remaining binding at 1 µM,CDC2L2; 1000 nM,98%
same,remaining binding at 0.1 µM,PRP4; 100 nM,100%
same,remaining binding at 1 µM,PRP4; 1000 nM,74%
same,remaining binding at 0.1 µM,TNK2; 100 nM,62%
same,remaining binding at 1 µM,TNK2; 1000 nM,25%
same,remaining binding at 0.1 µM,PRKR; 100 nM,100%
same,remaining binding at 1 µM,PRKR; 1000 nM,91%
same,remaining binding at 0.1 µM,PIP5K1A; 100 nM,70%
same,remaining binding at 1 µM,PIP5K1A; 1000 nM,76%
same,remaining binding at 0.1 µM,TTK; 100 nM,100%
same,remaining binding at 1 µM,TTK; 1000 nM,100%
same,remaining binding at 0.1 µM,LKB1; 100 nM,82%
same,remaining binding at 1 µM,LKB1; 1000 nM,83%
same,remaining binding at 0.1 µM,TIE1; 100 nM,89%
same,remaining binding at 1 µM,TIE1; 1000 nM,68%
same,remaining binding at 0.1 µM,EPHA8; 100 nM,91%
same,remaining binding at 1 µM,EPHA8; 1000 nM,81%
same,remaining binding at 0.1 µM,MKK7; 100 nM,100%
same,remaining binding at 1 µM,MKK7; 1000 nM,54%
same,remaining binding at 0.1 µM,STK39; 100 nM,100%
same,remaining binding at 1 µM,STK39; 1000 nM,85%
